# Measurements: patent US20170129911A1, “COMPLEXES COMPRISING A PLATINUM COMPOUND AND AN IMMUNE CHECKPOINT INHIBITOR AND RELATED METHODS” (Massachusetts Institute of Technology, priority 2015, published 2017)
# How the values were obtained:
# human IDO in SKOV3 cells = assay: Immunoblotting and qRT-PCR of IDO expression in SKOV3 cells; format: cell-based
# Procedure: Total RNA was isolated with the Qiagen RNAeasy RNA isolation kit (Hilden, Germany) and cDNA was synthesized with the Applied Biosystems reverse-transcription-kit (Foster City, Calif., USA). qRT-PCR was performed in a Light cycler 480 II thermo cycler with SYBR Green PCR Mastermix (Roche). All primers were separated by at least one intron on the genomic DNA to exclude its amplification. PCR reactions were checked by including no-RT controls, by omission of templates, and by melting curves. Standard curves were generated for each gene. Relative quantification of gene expression was determined by comparison of threshold values. All samples were analyzed in duplicate at two different dilutions. All results were normalized to GAPDH.
# Cells were washed with PBS, scraped into SDS-PAGE loading buffer (64 mM Tris-HCl (pH 6.8)/9.6% glycerol/2% SDS/5% β-mercaptoethanol/0.01% Bromophenol Blue), and incubated at 95° C. for 10 min. […] Membranes were blocked in 5% (w/v) bovine serum albumin in PBST (PBS/0.1% Tween 20) and incubated with the appropriate primary antibodies (Cell Signalling Technology and Santa Cruz). After incubation with horseradish peroxidase-conjugated secondary antibodies (Cell Signalling Technology), 1:1000, immuno complexes were detected with the ECL detection reagent (BioRad) and analyzed using UVP biospectrum imaging system fitted with a chemiluminescence filter.
# [1] = Whole human blood stability test; format: in vitro ADME
# Procedure: To a volume of 0.8 mL fresh whole human blood (Innovative Research, Novi, Mich.) was added 24 μL of a DMSO solution of 2 (2.0 mM), resulting in a final concentration of 60 μM. After 5 sec of vortexing, a 100 μL aliquot of the blood sample (0 h time point) was immediately transferred to a new tube containing 300 μL of octanol, and the remaining […] of blood was incubated at 37° C. with rotation (1100 rpm). The blood-octanol mixture was vortexed for 2 min at R.T. and then centrifuged to separate the phases. The isolated octanol extract was diluted with methanol for GFAAS measurement. At varying time points (1 h, 2 h, 3 h, 5 h, and 7 h), a 100 μL aliquot was removed from the incubating blood and extracted as described above. For the 7 h sample, analytical HPLC was employed to confirm the integrity of the Pt compound. A standard of 2 and an octanol extract from blank whole human blood were used for comparison.
# [2] = Tolerability/toxicity in mice; format: in vivo
# [3] = test system: A2780 human ovarian cancer cells; assay: Cytotoxicity MTT assay, A2780; format: cell-based; conditions: 72 h
# From the text: (§1) Ovarian carcinoma cells, NIH:OVCAR3, A2780, A2780/CP70, and SKOV3 were purchased from the American Type Culture Collection (ATCC, Rockville Md.). Peripheral blood mononuclear cells (PBMCs) of two different donors were obtained from Zen Bio Inc. (Research Triangle, NC). Cancer cell lines were maintained in Roswell Park Memorial Institute (RPMI) medium (glutamine-free supplemented with 10% fetal bovine serum, Atlanta Biologics, Atlanta Ga.) and 1% penicillin/streptomycin. PBMCs were thawed in specialized medium (10% […], 40% RPMI and 50% FBS) and subsequently cultured in RPMI containing 20% FBS. For T-cell proliferation experiments, PBMCs were stimulated by the addition of phytohemagglutinin (PHA-P). All cells were grown at 310 K in a humidified atmosphere containing 5% CO2. D-1-methyltryptophan, L-tryptophan and L-kynurenine were purchased from Sigma Aldrich.
# (§2) The colorimetric MTT assay was used to determine the toxicity of 1, 2, and cisplatin. Cells (2×10^3) were seeded in each well of a 96-well plate. […] Cisplatin was prepared as a 5 mM solution in PBS and diluted using media. 1, 2 and C16—Pt-Suc-NHC2H4OH were prepared as 10 mM solution in DMSO and diluted using media. […] The absorbance of the solution wells was read at 570 and 650 nm. Absorbance values were normalized to DMSO-containing control wells and plotted as concentration of test compound versus % cell viability. […]
# [4] = test system: NIH:OVCAR3 human ovarian cancer cells; assay: Cytotoxicity MTT assay, NIH:OVCAR3; format: cell-based
# From the text: as §1, §2
# [5] = Water-octanol partition coefficient (Log P), shake-flask method and GFAAS; conditions: octanol/PBS
# [6] = test system: A2780/CP70 human ovarian cancer cells; assay: Cytotoxicity MTT assay, A2780/CP70; format: cell-based; conditions: A2780/CP70, MTT, 72 h
# From the text: as §1
# The colorimetric MTT assay was used to determine the toxicity of 1, 2, and cisplatin. Cells (2×10^3) were seeded in each well of a 96-well plate. […] Cisplatin was prepared as a 5 mM solution in PBS and diluted using media. 1, 2 and C16—Pt-Suc-NHC2H4OH were prepared as 10 mM solution in DMSO and diluted using media. The final volume amount of DMSO in each well was 0.5%, and which was present in the untreated control as well. Cells co-incubated with cisplatin and (D)-1-MT were first pre-treated with 1 mM (D)-1-MT. […] The RPMI/MTT, mixture was aspirated and 100 μL of DMSO was added to dissolve the resulting purple formazan crystals. The absorbance of the solution wells was read at 570 and 650 nm. Absorbance values were normalized to DMSO-containing control wells and plotted as concentration of test compound versus % cell viability. IC50 values were interpolated from the resulting dose dependent curves. The reported IC50 values are the average of at least three independent experiments, each of which consisted of six replicates per concentration level.
# [7] = test system: SKOV3 human ovarian cancer cells; assay: Cytotoxicity MTT assay, SKOV3; format: cell-based
# From the text: as §1, §2
# [8] = test system: HCT 116 P53−/− colorectal cell line; assay: MTT anticancer activity, HCT116 p53 −/−; format: cell-based; conditions: 48 h
# Procedure: (§3) An MTT assay was run to measure the compounds anti cancer activity. The two colorectal cell lines HCT 116 P53+/+ and HCT 116 P53−/− were plated on 96 well plates. After adhesion to the plate, each individual compound was added to three rows, each consisting of 8 wells with a 3 fold dilution in concentration per well beginning at 25 μM. After 48 hours of incubation, the MTT reagent was added to the plates, which were then incubated for another 4 hours. The well contents were then dissolved in 200 μL of DMSO, and the plates were read for UV absorption at 570 nm and 650 nm. The collected data was then analyzed to produce the sigmoidal curves, which were then used to interpolate the IC50 values of each compounds. (See Table 3).
# [9] = test system: HCT 116 P53+/+ colorectal cell line; assay: MTT anticancer activity, HCT116 p53 +/+; format: cell-based; conditions: 48 h
# Procedure: as §3
# [10] = reported values used for comparison with human blood stability; cited from earlier work
# SKOV3 cells = assay: Cell cycle analysis by flow cytometry (DNA content)
# genomic DNA = assay: DNA platination experiments; format: cell-based, human; conditions: SKOV3, 10 μM, 17 h
# Procedure: To gain further insight into the mode of action was studied of 1 and 2, the subcellular distribution of platinum. SKOV3 cells were incubated with the drug candidates (5 μM) for 17 h, using cisplatin as a control. The platinum content was measured by using GFAAS.
# These cells were then treated with the compounds (10 μM) in fresh medium (9 mL) and subsequently incubated for 17 h at 37° C. The medium was aspirated and the cells were washed with PBS (3×8 mL), harvested by trypsinization (1 mL), and washed with 2 mL of PBS. The cell suspension was centrifuged at 2000 rpm for 5 min at 4° C. The cell pellet was suspended in DNAzol (1 mL, genomic DNA isolation reagent,). The DNA was precipitated with pure ethanol (0.5 mL), washed with 75% ethanol (0.75 mL×3), and re-dissolved in 500 μL of 8 mM NaOH. The DNA concentration was determined by UV-Vis spectroscopy and the platinum content was quantified by GFAAS. All experiments were carried out in triplicate.
compound,measurement,setting,value
"Cn1cc(C[C@@H](N)C(=O)[O][Pt]([NH2])([NH2])([Cl])([Cl])[O]C(=O)[C@H](N)Cc2cn(C)c3ccccc23)c2ccccc21 (mixture of isomers) [Compound 1, cis,cis,trans-[Pt(NH3)2Cl2(O2C-D-1-MT)2]]",concentration at which IDO protein expression is blocked,human IDO in SKOV3 cells; immunoblotting,100 µM
same,stability in blood,[1],stable in blood
same,toxicity / tolerance in mice,[2],low toxicity in mice
same,logP at 3 h,physchem,-0.21 ± 0.08
"Cn1cc(C[C@@H](N)C(=O)O)c2ccccc21 [(D)-1-MT, D-1-methyltryptophan]",IC50,[3]; Homo sapiens,833 ± 7.53 µM
same,IC50,"[4]; Homo sapiens, OVCAR-3, 72 h",1200 ± 80 µM
same,logP at 3 h,[5],-2.98 ± 0.15
same,IC50,[6]; Homo sapiens,1040 ± 63.9 µM
same,IC50,"[7]; Homo sapiens, SK-OV-3, 72 h",1918 ± 8.4 µM
"CCCCCCCCCCCCCCCCNC(=O)[O][Pt]([NH2])([NH2])([Cl])([Cl])[O]C(=O)CCC(=O)O [C16—Pt-Suc, reference compound]",IDO protein expression (IDO inhibition),human IDO in SKOV3 cells; immunoblotting and qRT-PCR,did not show IDO inhibition
O=C(O)C(=O)O.[NH-][C@@H]1CCCC[C@H]1[NH-].[Pt+2] [Oxaliplatin],IC50,[8],6.55 ± 1.78 µM
same,IC50,[9],1.32 ± 1.48 µM
CC(=O)[O][Pt]([NH2])([Cl])([Cl])([NH]C1CCCCC1)[O]C(C)=O [satraplatin],t1/2 (reported),[10],6 min
[cis-Pt(NH3)2Cl2] [Cisplatin],cell cycle arrest phase,SKOV3 cells,G2/M arrest
same,IC50,[3],0.7 ± 0.2 µM
same,DNA platination,genomic DNA,409±54 Pt adducts/10^4 nucleotides
same,IC50,[4]; 72 h,4.1 ± 0.2 µM
same,IC50,[6],10.4 ± 0.6 µM
same,IC50,[7]; 72 h,3.7 ± 0.28 µM
same,t1/2 (reported),[10],21.6 min
